Measurements reported in US6025390A, “Heteroaromatic pentadienoic acid derivatives useful as inhibitors of bone resorption” (SmithKline Beecham SpA, priority 1996, dated 2000).

Assays:
[1] = molecular target: Bafilomycin-Sensitive ATPase in Chicken Osteoclasts; assay: Inhibition of bafilomycin-sensitive ATPase activity in purified membrane vesicles (Pi release, malachite green); assay type: biochemical; conditions: chicken osteoclast membranes
Method: Preparation of crude bone microsomes from calcium-starved egg-laying hens.
Vesicles were prepared from medullar bone obtained from tibiae and femurs of egg-laying hens which were calcium-starved for at least 15 days. Briefly, bone fragments were scraped with a 24 scalpel blade, suspended in 40 ml of isolation medium (0.2M sucrose, 50 mM KCl, 10 mM Hepes, 1 mM EGTA, 2 mM dithiotheitrol, pH 7.4) and filtered through a 100 μm pore size nylon mesh. The whole procedure was performed at 4° C. After homogenisation in a potter (20 strokes) in 40 ml of isolation medium an initial centrifugation (6,500×gmax ×20 min) was performed to remove mitochondria and lysosomes. The supernatant was centrifuged at 100,000×gmax for 1 hr and the pellet was collected in 1 ml of isolation medium, divided into 200 μl aliquots, immediately frozen in liquid nitrogen and stored at […]. The protein content was determined using a Biorad colourimetric kit according to Bradford [M. Bradford, Anal. Biochem., 72, 248 (1976)]. For the proton transport assay, 5-10 μl of membranes were used.
Purification of osteoclast membranes. 1 ml of crude microsomal vesicles prepared above were applied (about 0.2 ml per tube) on the top of a sucrose step-gradient consisting of 3.5 ml of 15%, 30% and 45% (w/w) sucrose in isolation medium and centrifuged at 280,000 gmax for 2 hours (SW 41 Ti rotor). After centrifugation the 30-45% sucrose interfaces were collected, diluted approx. 20-fold in isolation medium and pelletted at 100,000 gmax for 1 hour (SW 28 rotor). The pellet was then resuspended in 1 ml of isolation medium, aliquoted and frozen in liquid N2 and stored at -80° C. until used.
Inhibition of bafilomycin-sensitive ATPase activity was assessed in purified membrane vesicles by measuring the release of inorganic phosphate (Pi) during 30 min of incubation at 37° C. in a 96-well plate either in the presence or in the absence of bafilomycin A1. The reaction medium contained 1 mM ATP, 10 mM HEPES-Tris pH 8, 50 MM KCl, 5 uM valinomycin, 5 uM nigericin, 1 mM CDTA-Tris, 100 uM ammonium molybdate, 0.2M sucrose and membranes (20 ug protein/ml). The reaction was initiated by MgSO4 (8-arm pipette) and stopped, after 30 min, by addition of 4 volumes of the malachite green reagent (96-arm pipette) prepared according to Chan [Anal. Biochem. 157, 375 (1986)]. Absorbance at 650 nm was measured after 2 min using a microplate reader. Results are expressed as μmol (Pi)×mg protein^-1 ×hour^-1 and, for each experiment, represent the mean±sem of triplicates.

osteoclast proton pump = conditions: avian osteoclast membrane vesicles, ATP-driven acidification; cited from earlier work
osteoclast cultures = conditions: cited from earlier work

Compound | IC50 [1] [µM] | inhibition of proton transport (osteoclast proton pump) | inhibition of bone resorption (osteoclast cultures)
CO/C(=C\C=C\c1cc2ccccc2o1)C(=O)NC1CC(C)(C)N(C)C(C)(C)C1 [Example 5, (2Z,4E)-5-(Benzofuran-2-yl)-2-methoxy-N[(1,2,2,6,6-pentamethyl)-piperidin-4-yl]-2,4-pentadienamide] | 11 | – | –
CO/C(=C\C=C\c1cc2ccccc2o1)C(=O)NC1CC(C)(C)NC(C)(C)C1 [Example 3, (2Z,4E)-5-(Benzofuran-2-yl)-2-methoxy-N-((2,2,6,6-tetramethyl)-piperidin-4-yl)-2,4-pentadienamide] | 8.6 | – | –
Cc1nc2c(OCc3ccccc3)cccn2c1CC#N [SCH 28080] | – | not inhibited | –
CCN(CC)CCCNC(=O)/C(=C/C=C/c1cc2cc(Cl)ccc2o1)OC [Example 9, (2Z,4E)-5-(5-Chlorobenzofuran-2-yl)-N-(3-diethylaminopropyl)-2-methoxy-2,4-pentadienamide] | 10 | – | –
C[C@@H]1O[C@@H](O[C@H]2C[C@@H](O)[C@]3(CO)[C@H]4[C@H](O)C[C@]5(C)[C@@H](C6=CC(=O)OC6)CC[C@]5(O)[C@@H]4CC[C@]3(O)C2)[C@H](O)[C@H](O)[C@H]1O [ouabain] | – | not inhibited | –
CO/C1=C\C(C)=C\[C@@H](C)[C@@H](O)[C@@H](C)C/C(C)=C/C=C/[C@H](OC)[C@@H]([C@@H](C)[C@@H](O)[C@H](C)[C@@]2(O)C[C@@H](O)[C@H](C)[C@@H](C(C)C)O2)OC1=O [bafilomycin A1] | – | inhibited | able to inhibit bone resorption
CO/C(=C\C=C\c1cc2ccccc2s1)C(=O)NC1CC(C)(C)N(C)C(C)(C)C1 [Example 12, (2Z,4E)-5-(Benzothiophen-2-yl)-2-methoxy-N-[(1,2,2,6,6-pentamethyl)-piperidin-4-yl]-2,4-pentadienamide] | 10.6 | – | –
COc1ccc2[nH]c([S+]([O-])Cc3ncc(C)c(OC)c3C)nc2c1 (stereo not drawn) [omeprazole] | – | not inhibited | –
[Na+].[Na+].[Na+].[O]=[V]([O-])([O-])[O-] [sodium orthovanadate] | – | not inhibited | –
CO/C(=C\C=C\c1cc2cc(Cl)ccc2o1)C(=O)NC1CC(C)(C)N(C)C(C)(C)C1 [Example 8] | 0.5 | – | –
CCN1C(=O)C=CC1=O [N-ethylmaleimide] | – | inhibited | –
